Columns and labels:
[1] = target: MAPK1 (Homo sapiens, UniProt P27361); test: Kinase panel (Millipore); format: biochemical; details: 1 µM, ATP at Km
[2] = target: BTK (Homo sapiens, UniProt Q06187); test: Kinase panel (Millipore); format: biochemical; details: 1 µM, ATP at Km
[3] = target: CDK6/CYCLIND3 (Homo sapiens, UniProt Q00534); details: 1 µM, ATP at Km
[4] = target: T1, CHK2 (Homo sapiens, UniProt O96017); test: Kinase panel (Millipore); format: biochemical; details: 1 µM, ATP at Km
T1 construct: purchased Millipore (KinaseProfiler) kinase panel

[5] = target: PKCBII (Homo sapiens, UniProt P05771); test: Kinase panel (Millipore); format: biochemical; details: 1 µM, ATP at Km
[6] = target: PKCALPHA (Homo sapiens, UniProt P17252); test: Kinase panel (Millipore); format: biochemical; details: 1 µM, ATP at Km
[7] = target: STK33 (Homo sapiens, UniProt Q9BYT3); details: 1 µM, ATP at Km
[8] = target: T2, BRSK1 (Homo sapiens, UniProt Q8TDC3); test: Kinase panel (Millipore); format: biochemical; details: 1 µM, ATP at Km
T2 construct: purchased Millipore (KinaseProfiler) kinase panel

[9] = target: PAK5 (Homo sapiens, UniProt Q9P286); test: Kinase panel (Millipore); format: biochemical; details: 1 µM, ATP at Km
[10] = target: ROCK-II (Homo sapiens, UniProt O75116); test: Kinase panel (Millipore); format: biochemical; details: 1 µM, ATP at Km
[11] = target: N neuronal alpha 4beta 2 (h) (Homo sapiens, UniProt P17787+P43681); test: biochemical; details: read-out: % Inhibition of Control Specific Binding
[12] = target: T3, ERBB4 (Homo sapiens, UniProt Q15303); test: Kinase panel (Millipore); format: biochemical; details: 1 µM, ATP at Km
T3 construct: purchased Millipore (KinaseProfiler) kinase panel

[13] = target: ARG (Homo sapiens, UniProt P42684); test: Kinase panel (Millipore); format: biochemical; details: 1 µM, ATP at Km
[14] = target: CAMKIIDELTA (Homo sapiens, UniProt Q13557); test: Kinase panel (Millipore); format: biochemical; details: 1 µM, ATP at Km
[15] = target: T4, IRR (Homo sapiens, UniProt P14616); test: Kinase panel (Millipore); format: biochemical; details: 1 µM, ATP at Km
T4 construct: purchased Millipore (KinaseProfiler) kinase panel

[16] = target: T5, HIPK3 (Homo sapiens, UniProt Q9H422); test: Kinase panel (Millipore); format: biochemical; details: 1 µM, ATP at Km
T5 construct: purchased Millipore (KinaseProfiler) kinase panel

[17] = target: PKBGAMMA (Homo sapiens, UniProt Q9Y243); test: Kinase panel (Millipore); format: biochemical; details: 1 µM, ATP at Km
[18] = target: T6, MKK7BETA (Homo sapiens, UniProt O14733); test: Kinase panel (Millipore); format: biochemical; details: 1 µM, ATP at Km
T6 construct: purchased Millipore (KinaseProfiler) kinase panel

[19] = target: IRAK4 (Homo sapiens, UniProt Q9NWZ3); test: Kinase panel (Millipore); format: biochemical; details: 1 µM, ATP at Km
[20] = target: T7, ARK5 (Homo sapiens, UniProt O60285); test: Kinase panel (Millipore); format: biochemical; details: 1 µM, ATP at Km
T7 construct: purchased Millipore (KinaseProfiler) kinase panel

[21] = target: IRAK1 (Homo sapiens, UniProt P51617); test: Kinase panel (Millipore); format: biochemical; details: 1 µM, ATP at Km
[22] = target: T8, PKCZETA (Homo sapiens, UniProt Q05513); test: Kinase panel (Millipore); format: biochemical; details: 1 µM, ATP at Km
T8 construct: purchased Millipore (KinaseProfiler) kinase panel

[23] = target: T9, ACK1 (Homo sapiens, UniProt Q07912); test: Kinase panel (Millipore); format: biochemical; details: 1 µM, ATP at Km
T9 construct: purchased Millipore (KinaseProfiler) kinase panel

[24] = system: APC-mutant SW620 human colorectal carcinoma xenograft
[25] = target: […](D842V) (Homo sapiens, UniProt P16234, D842V); details: 1 µM, ATP at Km
[26] = target: glucagon (h) (Homo sapiens, UniProt P47871); test: biochemical; details: read-out: % Inhibition of Control Specific Binding
[27] = target: NEK7 (Homo sapiens, UniProt Q8TDX7); test: Kinase panel (Millipore); format: biochemical; details: 1 µM, ATP at Km
[28] = target: T10, CRF1 (h) (Homo sapiens, UniProt P34998); test: CEREP binding assay; details: agonist radioligand, read-out: % Inhibition of Control Specific Binding
T10 construct: purchased Millipore (KinaseProfiler) kinase panel

[29] = target: T11, TEC ACTIVATED (Homo sapiens, UniProt P42680); test: Kinase panel (Millipore); format: biochemical; details: 1 µM, ATP at Km
T11 construct: purchased Millipore (KinaseProfiler) kinase panel

[30] = target: A2B (h) (Homo sapiens, UniProt P29275); test: biochemical; details: read-out: % Inhibition of Control Specific Binding
[31] = target: CHK2(I157T) (Homo sapiens, UniProt O96017, I157T); details: 1 µM, ATP at Km
[32] = target: T12, H4 (h) (Homo sapiens, UniProt Q9H3N8); test: CEREP binding assay; details: agonist radioligand, read-out: % Inhibition of Control Specific Binding
T12 construct: purchased Millipore (KinaseProfiler) kinase panel

[33] = target: T13, H3 (h) (Homo sapiens, UniProt Q9Y5N1); test: CEREP binding assay; details: agonist radioligand, read-out: % Inhibition of Control Specific Binding
T13 construct: purchased Millipore (KinaseProfiler) kinase panel

[34] = target: PI3 KINASE (H1047R/P85A) (Homo sapiens, UniProt P42336, H1047R); details: 1 µM, ATP at Km
[35] = target: T14, GR (h) (Homo sapiens, UniProt P04150); test: CEREP binding assay; details: agonist radioligand, read-out: % Inhibition of Control Specific Binding
T14 construct: CEREP

[36] = target: FYN (Homo sapiens, UniProt P06241); test: Kinase panel (Millipore); format: biochemical; details: 1 µM, ATP at Km
[37] = target: T15, ITK (Homo sapiens, UniProt Q08881); test: Kinase panel (Millipore); format: biochemical; details: 1 µM, ATP at Km
T15 construct: purchased Millipore (KinaseProfiler) kinase panel

[38] = target: RET(V804L) (Homo sapiens, UniProt P07949, V804L); details: 1 µM, ATP at Km
[39] = target: CAMKI (Homo sapiens, UniProt Q14012); test: Kinase panel (Millipore); format: biochemical; details: 1 µM, ATP at Km
[40] = target: T16, WNK2 (Homo sapiens, UniProt Q9Y3S1); test: Kinase panel (Millipore); format: biochemical; details: 1 µM, ATP at Km
T16 construct: purchased Millipore (KinaseProfiler) kinase panel

[41] = target: T17, EPHB4 (Homo sapiens, UniProt P54760); test: Kinase panel (Millipore); format: biochemical; details: 1 µM, ATP at Km
T17 construct: purchased Millipore (KinaseProfiler) kinase panel

[42] = target: EEF-2K (Homo sapiens, UniProt O00418); test: Kinase panel (Millipore); format: biochemical; details: 1 µM, ATP at Km
Sequence of EEF-2K (O00418 whole entry): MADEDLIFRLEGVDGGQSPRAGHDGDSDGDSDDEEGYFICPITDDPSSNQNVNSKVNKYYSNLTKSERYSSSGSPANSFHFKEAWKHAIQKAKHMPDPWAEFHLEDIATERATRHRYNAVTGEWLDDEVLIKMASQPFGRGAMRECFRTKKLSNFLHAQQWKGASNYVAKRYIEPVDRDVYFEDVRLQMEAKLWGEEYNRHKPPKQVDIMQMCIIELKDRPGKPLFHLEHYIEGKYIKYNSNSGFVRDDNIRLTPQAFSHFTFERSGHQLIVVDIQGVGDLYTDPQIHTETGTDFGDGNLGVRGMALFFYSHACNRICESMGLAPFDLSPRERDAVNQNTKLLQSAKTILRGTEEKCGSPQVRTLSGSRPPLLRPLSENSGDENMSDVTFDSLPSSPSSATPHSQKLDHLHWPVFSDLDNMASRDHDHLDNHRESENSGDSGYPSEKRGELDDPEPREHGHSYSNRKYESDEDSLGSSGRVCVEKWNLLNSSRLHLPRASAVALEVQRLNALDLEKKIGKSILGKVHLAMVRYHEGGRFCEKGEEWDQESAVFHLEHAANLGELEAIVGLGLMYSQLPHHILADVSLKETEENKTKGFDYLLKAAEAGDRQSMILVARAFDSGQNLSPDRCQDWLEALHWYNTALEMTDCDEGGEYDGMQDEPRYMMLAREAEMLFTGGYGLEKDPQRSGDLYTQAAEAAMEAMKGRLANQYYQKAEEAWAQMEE

Sequence of STK33 (Q9BYT3 whole entry): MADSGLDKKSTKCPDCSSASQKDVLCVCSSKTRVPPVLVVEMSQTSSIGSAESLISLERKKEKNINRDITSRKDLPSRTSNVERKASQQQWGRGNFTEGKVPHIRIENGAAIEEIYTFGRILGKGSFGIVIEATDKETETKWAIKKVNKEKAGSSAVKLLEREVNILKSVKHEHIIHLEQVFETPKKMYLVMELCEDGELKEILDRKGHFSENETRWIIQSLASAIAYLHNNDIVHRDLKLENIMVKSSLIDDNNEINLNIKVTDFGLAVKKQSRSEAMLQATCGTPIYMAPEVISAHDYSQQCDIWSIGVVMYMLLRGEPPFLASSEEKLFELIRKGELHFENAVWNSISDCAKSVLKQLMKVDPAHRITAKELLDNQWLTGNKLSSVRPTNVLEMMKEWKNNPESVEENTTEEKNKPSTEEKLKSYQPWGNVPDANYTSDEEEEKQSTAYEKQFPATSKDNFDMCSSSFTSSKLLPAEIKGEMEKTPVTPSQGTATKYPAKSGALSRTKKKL
T12 sequence (Q9H3N8 whole entry): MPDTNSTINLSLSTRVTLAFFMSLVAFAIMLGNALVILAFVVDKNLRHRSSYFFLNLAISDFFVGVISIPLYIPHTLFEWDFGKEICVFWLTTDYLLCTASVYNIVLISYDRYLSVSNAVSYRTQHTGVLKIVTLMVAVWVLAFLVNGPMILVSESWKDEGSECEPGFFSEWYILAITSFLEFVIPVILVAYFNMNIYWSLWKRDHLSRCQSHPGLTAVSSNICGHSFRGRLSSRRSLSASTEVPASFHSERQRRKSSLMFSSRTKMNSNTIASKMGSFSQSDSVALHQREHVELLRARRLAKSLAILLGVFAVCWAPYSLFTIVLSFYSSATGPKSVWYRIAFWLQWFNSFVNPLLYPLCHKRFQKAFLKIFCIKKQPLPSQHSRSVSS
Sequence of PKCBII (P05771 1-673 isoform P05771-2): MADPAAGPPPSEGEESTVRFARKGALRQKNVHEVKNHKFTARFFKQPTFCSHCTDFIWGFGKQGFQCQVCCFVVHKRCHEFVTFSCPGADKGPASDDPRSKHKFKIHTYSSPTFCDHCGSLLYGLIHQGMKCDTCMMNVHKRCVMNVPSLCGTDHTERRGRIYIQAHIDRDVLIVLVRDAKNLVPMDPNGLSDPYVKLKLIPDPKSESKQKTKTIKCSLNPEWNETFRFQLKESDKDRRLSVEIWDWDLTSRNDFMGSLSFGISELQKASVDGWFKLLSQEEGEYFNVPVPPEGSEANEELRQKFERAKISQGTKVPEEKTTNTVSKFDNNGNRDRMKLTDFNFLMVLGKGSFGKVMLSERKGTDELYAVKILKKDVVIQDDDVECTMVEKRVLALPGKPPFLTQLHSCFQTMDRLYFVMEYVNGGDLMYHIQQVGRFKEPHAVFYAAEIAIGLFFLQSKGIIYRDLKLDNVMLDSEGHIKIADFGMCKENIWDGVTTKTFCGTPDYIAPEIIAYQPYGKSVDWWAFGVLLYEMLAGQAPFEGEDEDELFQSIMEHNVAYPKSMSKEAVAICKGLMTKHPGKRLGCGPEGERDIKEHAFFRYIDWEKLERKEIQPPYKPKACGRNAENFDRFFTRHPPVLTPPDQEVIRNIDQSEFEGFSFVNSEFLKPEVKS
Sequence of CAMKI (Q14012 whole entry): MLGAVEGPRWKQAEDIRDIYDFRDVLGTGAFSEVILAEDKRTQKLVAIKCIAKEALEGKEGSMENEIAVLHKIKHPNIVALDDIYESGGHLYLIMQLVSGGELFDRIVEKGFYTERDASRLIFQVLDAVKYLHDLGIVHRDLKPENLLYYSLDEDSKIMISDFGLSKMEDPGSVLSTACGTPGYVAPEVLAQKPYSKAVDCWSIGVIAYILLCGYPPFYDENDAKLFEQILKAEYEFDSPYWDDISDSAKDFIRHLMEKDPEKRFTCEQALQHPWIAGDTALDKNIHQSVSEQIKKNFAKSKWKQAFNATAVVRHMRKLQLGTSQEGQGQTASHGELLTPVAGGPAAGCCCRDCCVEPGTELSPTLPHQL
Sequence of BTK (Q06187 whole entry): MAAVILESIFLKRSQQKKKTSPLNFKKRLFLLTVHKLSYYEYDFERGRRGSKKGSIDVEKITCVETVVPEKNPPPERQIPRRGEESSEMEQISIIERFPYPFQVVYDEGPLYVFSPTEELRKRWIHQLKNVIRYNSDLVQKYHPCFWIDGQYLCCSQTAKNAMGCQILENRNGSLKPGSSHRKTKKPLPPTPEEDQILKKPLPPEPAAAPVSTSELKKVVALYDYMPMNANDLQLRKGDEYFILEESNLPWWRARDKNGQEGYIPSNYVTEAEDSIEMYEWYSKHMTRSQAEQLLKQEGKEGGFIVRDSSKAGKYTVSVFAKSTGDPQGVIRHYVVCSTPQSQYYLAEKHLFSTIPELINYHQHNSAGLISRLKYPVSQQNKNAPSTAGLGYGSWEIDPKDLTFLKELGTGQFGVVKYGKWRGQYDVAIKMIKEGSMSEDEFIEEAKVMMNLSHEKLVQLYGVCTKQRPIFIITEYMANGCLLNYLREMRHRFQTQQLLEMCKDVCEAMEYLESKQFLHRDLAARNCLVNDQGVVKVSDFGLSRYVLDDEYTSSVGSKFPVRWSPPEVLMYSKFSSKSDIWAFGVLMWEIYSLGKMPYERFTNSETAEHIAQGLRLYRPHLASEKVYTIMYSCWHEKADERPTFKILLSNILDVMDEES
T6 sequence (O14733 whole entry): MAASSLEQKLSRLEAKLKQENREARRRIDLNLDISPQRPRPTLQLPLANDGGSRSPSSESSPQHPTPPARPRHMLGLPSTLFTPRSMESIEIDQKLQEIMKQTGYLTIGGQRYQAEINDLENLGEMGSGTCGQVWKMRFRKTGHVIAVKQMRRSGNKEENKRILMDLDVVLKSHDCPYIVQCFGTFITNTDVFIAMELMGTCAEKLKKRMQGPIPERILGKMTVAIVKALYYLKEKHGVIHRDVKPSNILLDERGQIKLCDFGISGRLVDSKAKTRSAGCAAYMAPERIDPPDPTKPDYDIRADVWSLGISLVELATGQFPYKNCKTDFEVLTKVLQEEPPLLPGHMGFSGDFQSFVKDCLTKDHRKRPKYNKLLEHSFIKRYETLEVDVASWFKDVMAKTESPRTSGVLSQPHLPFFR
T14 sequence (P04150 whole entry): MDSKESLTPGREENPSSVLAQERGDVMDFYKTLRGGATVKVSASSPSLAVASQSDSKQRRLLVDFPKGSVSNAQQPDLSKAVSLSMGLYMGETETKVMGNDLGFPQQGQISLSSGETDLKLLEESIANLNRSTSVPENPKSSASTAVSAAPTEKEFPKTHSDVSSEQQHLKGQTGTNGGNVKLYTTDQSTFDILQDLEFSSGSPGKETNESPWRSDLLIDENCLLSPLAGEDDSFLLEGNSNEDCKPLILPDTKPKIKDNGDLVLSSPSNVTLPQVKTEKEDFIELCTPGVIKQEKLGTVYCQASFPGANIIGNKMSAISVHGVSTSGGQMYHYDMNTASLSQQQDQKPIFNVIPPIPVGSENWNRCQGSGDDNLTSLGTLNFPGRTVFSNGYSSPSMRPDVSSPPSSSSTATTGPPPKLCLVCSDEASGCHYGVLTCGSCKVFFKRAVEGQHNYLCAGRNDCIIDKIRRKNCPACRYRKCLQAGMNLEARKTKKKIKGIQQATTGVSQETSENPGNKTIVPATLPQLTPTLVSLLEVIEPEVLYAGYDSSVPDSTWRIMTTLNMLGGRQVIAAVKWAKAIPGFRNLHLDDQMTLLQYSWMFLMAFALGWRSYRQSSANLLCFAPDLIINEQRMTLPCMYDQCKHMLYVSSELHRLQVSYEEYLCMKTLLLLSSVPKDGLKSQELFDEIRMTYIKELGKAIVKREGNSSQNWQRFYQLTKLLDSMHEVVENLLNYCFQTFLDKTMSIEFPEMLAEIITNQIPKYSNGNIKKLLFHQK
Sequence of PKBGAMMA (Q9Y243 whole entry): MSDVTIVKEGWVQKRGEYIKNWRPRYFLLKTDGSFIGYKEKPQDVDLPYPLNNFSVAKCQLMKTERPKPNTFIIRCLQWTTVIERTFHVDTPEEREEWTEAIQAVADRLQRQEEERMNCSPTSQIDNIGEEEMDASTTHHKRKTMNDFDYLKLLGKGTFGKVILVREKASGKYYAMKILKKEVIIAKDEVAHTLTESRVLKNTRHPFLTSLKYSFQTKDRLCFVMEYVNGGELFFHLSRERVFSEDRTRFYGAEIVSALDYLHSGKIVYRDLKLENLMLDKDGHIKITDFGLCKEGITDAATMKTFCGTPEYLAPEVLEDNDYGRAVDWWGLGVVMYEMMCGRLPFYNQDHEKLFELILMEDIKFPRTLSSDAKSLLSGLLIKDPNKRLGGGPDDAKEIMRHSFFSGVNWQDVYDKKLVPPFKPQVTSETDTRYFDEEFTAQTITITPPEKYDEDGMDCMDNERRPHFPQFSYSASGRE

Cn1ncc2cc(-c3cnc(N)c(Cl)c3N3CCC4(CCNC4=O)CC3)ccc21 [Compound 109, 8-(2-Amino-3-chloro-5-(1-methyl-1H-indazol-5-yl)pyridin-4-yl)-2,8-diazaspiro[4.5]decan-1-one]
% effect [1]: 7% | % effect [2]: 6% | % effect [3]: 5% | % effect [4]: -2% | % effect [5]: 3% | % effect [6]: 5% | % effect [7]: 0% | % effect [8]: 7% | % effect [9]: -11% | % effect [10]: -10% | inhibition at 10 µM [11]: -6% | % effect [12]: -28% | % effect [13]: 5% | % effect [14]: 7% | % effect [15]: 5% | % effect [16]: 18% | % effect [17]: 7% | % effect [18]: -15% | % effect [19]: 6% | % effect [20]: 10% | % effect [21]: 15% | % effect [22]: 1% | % effect [23]: -11% | T/C (final tumor weights) ([24]; 30 mg/kg q.d. oral, P = 0.0241): 45.8 | tolerability ([24]; 30 mg/kg q.d. schedule): well tolerated with no significant body weight loss | % effect [25]: -10% | inhibition at 10 µM [26]: -7% | % effect [27]: 15% | inhibition at 10 µM [28]: -7% | % effect [29]: -1% | inhibition at 10 µM [30]: -7% | % effect [31]: -5% | inhibition at 10 µM [32]: 0% | inhibition at 10 µM [33]: 3% | % effect [34]: 7% | inhibition at 10 µM [35]: -1% | % effect [36]: 23% | % effect [37]: -9% | % effect [38]: -7% | % effect [39]: -3% | % effect [40]: 27% | % effect [41]: -3% | % effect [42]: -6%

Source: paper PMC5362750, “Discovery of Potent, Selective, and Orally Bioavailable Small-Molecule Modulators of the Mediator Complex-Associated Kinases CDK8 and CDK19” (Journal of Medicinal Chemistry, 2016)
